According to US20080194524A1, “Compounds For the Inhibition of Undesired Cell Proliferation and Use Thereof” (JERINI AG, priority 2003, published 2008):
Like-named read-outs stand apart in the source and are kept apart here. Where a SMILES comes first, the peptide text is derived from it. [ ]: non-standard residue; d: D form. The star is where a group is joined. X1 = O=C(O)c1cc(NC(=S)*)ccc1-c1c2ccc(=O)cc-2oc2cc(O)ccc12; Acetyl(2-(piperazin-1-yl)) = O=C(CN1CCNCC1)*; 2Nal = N[C@@H](Cc1ccc2ccccc2c1)C(=O)O; Bta = N[C@@H](Cc1csc2ccccc12)C(=O)O; Benzyl(3,4-Cl2) = Clc1ccc(C*)cc1Cl; Benzyl(4-Cl) = Clc1ccc(C*)cc1; Pip = O=C(O)[C@@H]1CCCCN1; CH2PO3H2 = O=P(O)(O)C*; Inp = O=C(O)C1CCNCC1; Ahx = NCCCCCC(=O)O; Mpa = O=C(O)CCS

Target: hPin1 (Protein interacting with NIMA (-kinase)) (Homo sapiens, UniProt Q13526)
Sequence (Q13526 whole entry): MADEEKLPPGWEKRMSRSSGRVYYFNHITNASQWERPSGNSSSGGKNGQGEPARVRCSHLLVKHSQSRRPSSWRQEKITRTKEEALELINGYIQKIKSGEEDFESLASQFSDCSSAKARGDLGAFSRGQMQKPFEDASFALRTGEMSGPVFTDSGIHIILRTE
Test: protease-coupled PPIase assay, hPin1
Assay type: biochemical
[1] = hPin1 6 nM, substrate Ac-Ala-Ala-Ser(PO3H2)-Pro-Arg-pNA, trypsin, 35 mM HEPES pH 7.8, 6° C., read-out: Specificity of the inhibition with rotamases, Target T-1 (IC50 class)

| IC50 [1] [µM] | SMILES | IC50 [µM] |
| --- | --- | --- |
| 1 to 10 | CNC(=O)CC(SCP(=O)(O)O)C(=O)N1CCCC[C@H]1C(=O)N[C@@H](Cc1ccc2ccccc2c1)C(N)=O (mixture of isomers) [Compound 69, {2-[2-(1-Carbamoyl-2-naphthalen-2-yl-ethylcarbamoyl)-piperidin-1-yl]-1-methylcarbamoylmethyl-2-oxo-ethylsulfanylmethyl}-phosphonic acid] |  |
| < 1 | COc1ccc(NC(=O)CC(SCP(=O)(O)O)C(=O)N2CCCC[C@H]2C(=O)N[C@@H](Cc2ccc3ccccc3c2)C(N)=O)cc1 (mixture of isomers) [Compound 70, {2-[2-(1-Carbamoyl-2-naphthalen-2-yl-ethylcarbamoyl)-piperidin-1-yl]-1-[(4-methoxy-phenyl-carbamoyl)-methyl]-2-oxo-ethylsulfanylmethyl}-phosphonicacid] |  |
| 1 to 10 | CC(SCP(=O)(O)O)C(=O)N1CCCC[C@H]1C(=O)N[C@@H](Cc1ccc2ccccc2c1)C(N)=O (stereo in doubt) [Compound 65, {2-[2-(1-Carbamoyl-2-naphthalen-2-yl-ethylcarbamoyl)-piperidin-1-yl]-1-methyl-2-oxo-ethylsulfanylmethyl}-phosphonicacid] |  |
| < 1 | NC(=O)[C@H](Cc1ccc2ccccc2c1)NC(=O)[C@@H]1CCCCN1C(=O)[C@H](CSCP(=O)(O)O)NC(=O)CCSCc1ccc(Cl)cc1 [Compound 5, {3-[2-(1-Carbamoyl-2-naphthalen-2-yl-ethylcarbamoyl)-piperidin-1-yl]-2-[3-(4-chloro-benzylsulfanyl)-propionylamino]-3-oxo-propylsulfanylmethyl}-phosphonicacid] ([Mpa](Benzyl(4-Cl))C(CH2PO3H2)[Pip][2Nal]-NH2) |  |
| 1 to 10 | NC(=O)[C@H](Cc1ccc2ccccc2c1)NC(=O)[C@@H]1CCCCN1C(=O)[C@H](CSCP(=O)(O)O)NC(=O)CCSCc1ccc(Cl)c(Cl)c1 [Compound 6, {3-[2-(1-Carbamoyl-2-naphthalen-2-yl-ethylcarbamoyl)-piperidin-1-yl]-2-[3-(3.4-dichloro-benzylsulfanyl)-propionylamino]-3-oxo-propylsulfanylmethyl}-phosphonic acid] ([Mpa](Benzyl(3,4-Cl2))C(CH2PO3H2)[Pip][2Nal]-NH2) |  |
| < 1 | NC(=O)[C@H](Cc1ccc2ccccc2c1)NC(=O)[C@@H]1CCCCN1C(=O)[C@H](CSCP(=O)(O)O)NC(=O)CCCC(=O)c1ccc(Cl)cc1 [Compound 7, {3-[2-(1-Carbamoyl-2-naphthalen-2-yl-ethylcarbamoyl)-piperidin-1-yl]-2-[5-(4-chloro-phenyl)-5-oxo-pentanoylamino]-3-oxo-propylsulfanylmethyl}-phosphonicacid] |  |
| < 1 | NC(=O)[C@H](Cc1ccc2ccccc2c1)NC(=O)[C@@H]1CCCCN1C(=O)[C@H](CSCP(=O)(O)O)NC(=O)CCCCc1ccccc1 [Compound 8, [3-[2-(1-Carbamoyl-2-naphthalen-2-yl-ethylcarbamoyl)-piperidin-1-yl]-3-oxo-2-(5-phenyl-pentanoylamino)-propylsulfanylmethyl]-phosphonicacid] |  |
| 1 to 10 | NC(=O)[C@H](Cc1ccc2ccccc2c1)NC(=O)[C@@H]1CCCCN1C(=O)[C@H](CSCP(=O)(O)O)NC(=O)CC1CCCCC1 [Compound 11, [3-[2-(1-Carbamoyl-2-naphthalen-2-yl-ethylcarbamoyl)-piperidin-1-yl]-2-(2-cyclohexyl-acetylamino)-3-oxo-propylsulfanylmethyl]-phosphonic acid] |  |
| < 1 | NC(=O)[C@H](Cc1ccc2ccccc2c1)NC(=O)[C@@H]1CCCCN1C(=O)[C@H](CSCP(=O)(O)O)NC(=O)c1cccc(Oc2ccccc2)c1 [Compound 14, [3-[2-(1-Carbamoyl-2-naphthalen-2-yl-ethylcarbamoyl)-piperidin-1-yl]-3-oxo-2-(3-phenoxy-benzoylamino)-propylsulfanylmethyl]-phosphonicacid] |  |
| 1 to 10 | NC(=O)[C@H](Cc1ccc2ccccc2c1)NC(=O)[C@@H]1CCCCN1C(=O)[C@H](CSCP(=O)(O)O)NC(=O)C1CCc2ccccc2C1 (some centres unmarked) [Compound 15, {3-[2-(1-Carbamoyl-2-naphthalen-2-yl-ethylcarbamoyl)-piperidin-1-yl]-3-oxo-2-[(1.2.3.4-tetrahydro-naphthalene-2-carbonyl)-amino]-propylsulfanylmethyl}-phosphonicacid] |  |
| 1 to 10 | NC(=O)[C@H](Cc1ccc2ccccc2c1)NC(=O)[C@@H]1CCCCN1C(=O)[C@H](CSCP(=O)(O)O)NC(=O)CCc1cccs1 [Compound 16, [3-[2-(1-Carbamoyl-2-naphthalen-2-yl-ethylcarbamoyl)-piperidin-1-yl]-3-oxo-2-(3-thiophen-2-yl-propionylamino)-propylsulfanylmethyl]-phosphonicacid] |  |

Further lines, the compound ahead of its results:

| SMILES | IC50 [1] [µM] | IC50 [µM] |
| --- | --- | --- |
| CC(=O)N[C@@H](Cc1csc2ccccc12)C(=O)N[C@H](CSCP(=O)(O)O)C(=O)N1CCCC[C@H]1C(=O)N[C@@H](Cc1ccc2ccccc2c1)C(N)=O (stereo in doubt) [Compound 3, {2-(2-Acetylamino-3-benzo[b]thiophen-3-yl-propionylamino)-3-[2-(1-carbamoyl-2-naphthalen-2-yl-ethylcarbamoyl)-piperidin-1-yl]-3-oxo-propylsulfanylmethyl}-phosphonic acid] |  | < 1 |
| CC(=O)N1C(=O)SCC1C(=O)N[C@@H](CSCP(=O)(O)O)C(=O)N1CCCC[C@H]1C(=O)N[C@@H](Cc1ccc2ccccc2c1)C(N)=O (stereo in doubt) [Compound 42, {2-[(3-Acetyl-2-oxo-thiazolidine-4-carbonyl)-amino]-3-[2-(1-carbamoyl-2-naphthalen-2-yl-ethylcarbamoyl)-piperidin-1-yl]-3-oxo-propylsulfanylmethyl}-phosphonic acid] |  | < 1 |
| CC(=O)N[C@@H](Cc1csc2ccccc12)C(=O)N[C@@H](COCP(=O)(O)O)C(=O)N1CCCC[C@H]1C(=O)N[C@@H](Cc1ccc2ccccc2c1)C(N)=O [Compound 1, {2-(2-Acetylamino-3-benzo[b]thiophen-3-yl-propionylamino)-3-[2-(1-carbamoyl-2-naphthalen-2-yl-ethylcarbamoyl)-piperidin-1-yl]-3-oxo-propoxymethyl}-phosphonicacid] (Ac-[Bta]S(CH2PO3H2)[Pip][2Nal]-NH2) |  | 1 to 10 |
| CC(=O)N[C@@H](Cc1csc2ccccc12)C(=O)N[C@@H](CSCP(=O)(O)O)C(=O)N1CCCC[C@H]1C(=O)N[C@@H](Cc1ccc2ccccc2c1)C(N)=O [Compound 2, {2-(2-Acetylamino-3-benzo[b]thiophen-3-yl-propionylamino)-3-[2-(1-carbamoyl-2-naphthalen-2-yl-ethylcarbamoyl)-piperidin-1-yl]-3-oxo-propylsulfanylmethyl}-phosphonic acid] |  | < 1 |
| NC(=O)[C@H](Cc1ccc2ccccc2c1)NC(=O)[C@@H]1CCCCN1C(=O)[C@H](COCP(=O)(O)O)NC(=O)OCC1c2ccccc2-c2ccccc21 [Compound 4, [3-[2-(1-Carbamoyl-2-naphthalen-2-yl-ethylcarbamoyl)-piperidin-1-yl]-2-(9H-fluoren-9-ylmethoxycarbonylamino)-3-oxo-propoxymethyl]-phosphonic acid] | 1 to 10 |  |
| NC(=O)[C@H](Cc1ccc2ccccc2c1)NC(=O)[C@@H]1CCCCN1C(=O)[C@H](CSCP(=O)(O)O)NC(=O)[C@H](Cc1csc2ccccc12)NC(=O)CCCCCNC(=S)Nc1ccc(-c2c3ccc(=O)cc-3oc3cc(O)ccc23)c(C(=O)O)c1 [Compound 9] ({X1-Ahx}-[Bta]C(CH2PO3H2)[Pip][2Nal]-NH2) |  | < 1 |
| NC(=O)[C@H](Cc1ccc2ccccc2c1)NC(=O)[C@@H]1CCCCN1C(=O)[C@H](CSCP(=O)(O)O)NC(=O)CC1NC(=O)NC1=O (some centres unmarked) [Compound 10, {3-[2-(1-Carbamoyl-2-naphthalen-2-yl-ethylcarbamoyl)-piperidin-1-yl]-2-[2-(2.5-dioxo-imidazolidin-4-yl)-acetylamino]-3-oxo-propylsulfanylmethyl}-phosphonicacid] |  | < 1 |
| NC(=O)[C@H](Cc1ccc2ccccc2c1)NC(=O)[C@@H]1CCCCN1C(=O)[C@H](CSCP(=O)(O)O)NC(=O)C1CSC(=O)N1 (some centres unmarked) [Compound 12, {3-[2-(1-Carbamoyl-2-naphthalen-2-yl-ethylcarbamoyl)-piperidin-1-yl]-3-oxo-2-[(2-oxo-thiazolidine-4-carbonyl)-amino]-propylsulfanylmethyl}-phosphonicacid] |  | < 1 |
| NC(=O)[C@H](Cc1ccc2ccccc2c1)NC(=O)[C@@H]1CCCCN1C(=O)[C@H](CSCP(=O)(O)O)NC(=O)C1CSC(=O)N1C(=O)C1CSC(=O)N1 (some centres unmarked) [Compound 13, (3-[2-(1-Carbamoyl-2-naphthalen-2-yl-ethylcarbamoyl)-piperidin-1-yl]-3-oxo-2-{[2-oxo-3-(2-oxo-thiazolidine-4-carbonyl)-thiazolidine-4-carbonyl]-amino}-propylsulfanylmethyl)-phosphonicacid] |  | < 1 |
| NC(=O)[C@H](Cc1ccc2ccccc2c1)NC(=O)[C@@H]1CCCCN1C(=O)[C@H](CSCP(=O)(O)O)NC(=O)OCC1c2ccccc2-c2ccccc21 [Compound 17] | 1 to 10 |  |
| NC(=O)[C@H](Cc1ccc2ccccc2c1)NC(=O)[C@@H]1CCCCN1C(=O)[C@H](CSCP(=O)(O)O)NC(=O)[C@H](Cc1csc2ccccc12)NC(=O)C1CCNCC1 [Compound 18, {2-{3-Benzo[b]thiophen-3-yl-2-[(piperidine-4-carbonyl)-amino]-propionylamino}-3-[2-(1-carbamoyl-2-naphthalen-2-yl-ethylcarbamoyl)-piperidin-1-yl]-3-oxo-propylsulfanylmethyl}-phosphonic acid] (H-[Inp][Bta]C(CH2PO3H2)[Pip][2Nal]-NH2) |  | < 1 |
| NC(=O)[C@H](Cc1ccc2ccccc2c1)NC(=O)[C@@H]1CCCCN1C(=O)[C@H](CSCP(=O)(O)O)NC(=O)[C@H](Cc1csc2ccccc12)NC(=O)CN1CCNCC1 [Compound 19, {2-[3-Benzo[b]thiophen-3-yl-2-(2-piperazin-1-yl-acetylamino)-propionylamino]-3-[2-(1-carbamoyl-2-naphthalen-2-yl-ethylcarbamoyl)-piperidin-1-yl]-3-oxo-propylsulfanylmethyl}-phosphonic acid] ({Acetyl(2-(piperazin-1-yl))}-[Bta]C(CH2PO3H2)[Pip][2Nal]-NH2) |  | < 1 |
